Test results from doi:10.1101/2021.09.30.462449v1 (biorxiv, 2021).

Assays:
Assay in all cases: biochemical
Details in all cases: read-out: % inhibition mean (Z'Lyte)
RPS6KA6 (RSK4) = RPS6KA6 (RSK4) (Homo sapiens, UniProt Q9UK32)
CSNK1D (CK1 delta) = CSNK1D (CK1 delta) (Homo sapiens, UniProt P48730)
AMPK (A2/B1/G2) = AMPK (A2/B1/G2) (Homo sapiens, UniProt P54646)
PTK2 (FAK) = PTK2 (FAK) (Homo sapiens, UniProt Q05397)
GRK7 = GRK7 (Homo sapiens, UniProt Q8WTQ7)
CHEK1 (CHK1) = CHEK1 (CHK1) (Homo sapiens, UniProt O14757)
FLT3 = FLT3 (Homo sapiens, UniProt P36888)
CAMK1G (CAMKI gamma) = CAMK1G (CAMKI gamma) (Homo sapiens, UniProt Q96NX5)
RPS6KA2 (RSK3) = RPS6KA2 (RSK3) (Homo sapiens, UniProt Q15349)
CSNK1G3 (CK1 gamma 3) = CSNK1G3 (CK1 gamma 3) (Homo sapiens, UniProt Q9Y6M4)
ABL1 F317L = ABL1 F317L (Homo sapiens, UniProt P00519, F317L)
RET A883F = RET A883F (Homo sapiens, UniProt P07949, A883F)
EGFR (ErbB1) T790M L858R = EGFR (ErbB1) T790M L858R (Homo sapiens, UniProt P00533, L858R/T790M)
CDC42 BPB (MRCKB) = CDC42 BPB (MRCKB) (Homo sapiens, UniProt Q9Y5S2)
CDK1/cyclin B = CDK1/cyclin B (Homo sapiens, UniProt P06493)
RET Y791F = RET Y791F (Homo sapiens, UniProt P07949, Y791F)
PDGFRA (PDGFR alpha) = PDGFRA (PDGFR alpha) (Homo sapiens, UniProt P16234)
MAPK13 (p38 delta) = MAPK13 (p38 delta) (Homo sapiens, UniProt O15264)
CLK1 = CLK1 (Homo sapiens, UniProt P49759)
PDGFRB (PDGFR beta) = PDGFRB (PDGFR beta) (Homo sapiens, UniProt P09619)
STK4 (MST1) = STK4 (MST1) (Homo sapiens, UniProt Q13043)
MAP3K19 (YSK4) = MAP3K19 (YSK4) (Homo sapiens, UniProt Q56UN5)
RET V804L = RET V804L (Homo sapiens, UniProt P07949, V804L)
ACVR1B (ALK4) = ACVR1B (ALK4) (Homo sapiens, UniProt P36896)
KIT V560G = KIT V560G (Homo sapiens, UniProt P10721, V560G)
PIM1 = PIM1 (Homo sapiens, UniProt P11309)
MATK (HYL) = MATK (HYL) (Homo sapiens, UniProt P42679)
SGK2 = SGK2 (Homo sapiens, UniProt Q9HBY8)

Sequence of RPS6KA6 (RSK4) (Q9UK32 whole entry): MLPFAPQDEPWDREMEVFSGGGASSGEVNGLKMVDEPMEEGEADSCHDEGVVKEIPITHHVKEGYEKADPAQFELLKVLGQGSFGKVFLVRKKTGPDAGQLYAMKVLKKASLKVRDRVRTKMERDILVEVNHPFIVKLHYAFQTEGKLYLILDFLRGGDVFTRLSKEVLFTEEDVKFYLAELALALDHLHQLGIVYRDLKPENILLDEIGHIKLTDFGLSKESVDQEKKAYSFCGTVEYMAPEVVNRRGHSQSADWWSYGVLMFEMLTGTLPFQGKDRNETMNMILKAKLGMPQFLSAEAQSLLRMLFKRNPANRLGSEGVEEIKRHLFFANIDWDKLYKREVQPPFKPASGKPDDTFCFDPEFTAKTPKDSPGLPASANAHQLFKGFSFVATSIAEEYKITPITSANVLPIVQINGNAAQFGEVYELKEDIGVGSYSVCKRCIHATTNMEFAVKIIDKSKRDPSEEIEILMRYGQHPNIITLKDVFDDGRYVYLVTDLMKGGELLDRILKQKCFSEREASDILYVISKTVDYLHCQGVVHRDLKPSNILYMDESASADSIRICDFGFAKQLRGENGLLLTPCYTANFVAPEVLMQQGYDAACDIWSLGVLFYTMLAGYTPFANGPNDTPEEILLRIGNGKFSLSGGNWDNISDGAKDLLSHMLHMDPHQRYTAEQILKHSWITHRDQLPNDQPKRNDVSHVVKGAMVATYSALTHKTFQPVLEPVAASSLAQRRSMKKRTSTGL
Sequence of CSNK1D (CK1 delta) (P48730 whole entry): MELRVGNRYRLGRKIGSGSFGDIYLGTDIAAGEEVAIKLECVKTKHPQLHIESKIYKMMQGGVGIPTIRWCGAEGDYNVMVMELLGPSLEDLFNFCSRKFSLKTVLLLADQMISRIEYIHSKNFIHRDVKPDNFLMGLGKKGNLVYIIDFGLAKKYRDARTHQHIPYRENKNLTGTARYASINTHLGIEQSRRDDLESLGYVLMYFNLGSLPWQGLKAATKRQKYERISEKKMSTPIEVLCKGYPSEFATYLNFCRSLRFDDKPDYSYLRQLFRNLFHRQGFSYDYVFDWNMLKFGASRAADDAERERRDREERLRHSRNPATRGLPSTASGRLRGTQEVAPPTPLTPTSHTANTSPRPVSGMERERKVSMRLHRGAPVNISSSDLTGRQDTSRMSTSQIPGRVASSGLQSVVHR
Sequence of CLK1 (P49759 whole entry): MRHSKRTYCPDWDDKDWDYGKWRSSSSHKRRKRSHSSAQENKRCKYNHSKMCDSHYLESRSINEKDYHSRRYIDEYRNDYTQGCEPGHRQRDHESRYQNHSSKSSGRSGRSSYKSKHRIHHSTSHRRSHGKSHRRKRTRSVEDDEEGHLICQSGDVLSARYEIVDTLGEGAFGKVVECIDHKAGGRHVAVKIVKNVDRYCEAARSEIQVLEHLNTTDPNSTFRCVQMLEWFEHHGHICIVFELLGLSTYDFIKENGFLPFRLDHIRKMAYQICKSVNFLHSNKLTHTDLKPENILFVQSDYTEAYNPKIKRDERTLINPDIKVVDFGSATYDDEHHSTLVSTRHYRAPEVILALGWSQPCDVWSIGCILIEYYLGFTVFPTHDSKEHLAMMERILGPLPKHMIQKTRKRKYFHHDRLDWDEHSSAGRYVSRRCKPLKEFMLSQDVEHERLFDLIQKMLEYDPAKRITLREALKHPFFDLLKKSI
Sequence of CDC42 BPB (MRCKB) (Q9Y5S2 whole entry): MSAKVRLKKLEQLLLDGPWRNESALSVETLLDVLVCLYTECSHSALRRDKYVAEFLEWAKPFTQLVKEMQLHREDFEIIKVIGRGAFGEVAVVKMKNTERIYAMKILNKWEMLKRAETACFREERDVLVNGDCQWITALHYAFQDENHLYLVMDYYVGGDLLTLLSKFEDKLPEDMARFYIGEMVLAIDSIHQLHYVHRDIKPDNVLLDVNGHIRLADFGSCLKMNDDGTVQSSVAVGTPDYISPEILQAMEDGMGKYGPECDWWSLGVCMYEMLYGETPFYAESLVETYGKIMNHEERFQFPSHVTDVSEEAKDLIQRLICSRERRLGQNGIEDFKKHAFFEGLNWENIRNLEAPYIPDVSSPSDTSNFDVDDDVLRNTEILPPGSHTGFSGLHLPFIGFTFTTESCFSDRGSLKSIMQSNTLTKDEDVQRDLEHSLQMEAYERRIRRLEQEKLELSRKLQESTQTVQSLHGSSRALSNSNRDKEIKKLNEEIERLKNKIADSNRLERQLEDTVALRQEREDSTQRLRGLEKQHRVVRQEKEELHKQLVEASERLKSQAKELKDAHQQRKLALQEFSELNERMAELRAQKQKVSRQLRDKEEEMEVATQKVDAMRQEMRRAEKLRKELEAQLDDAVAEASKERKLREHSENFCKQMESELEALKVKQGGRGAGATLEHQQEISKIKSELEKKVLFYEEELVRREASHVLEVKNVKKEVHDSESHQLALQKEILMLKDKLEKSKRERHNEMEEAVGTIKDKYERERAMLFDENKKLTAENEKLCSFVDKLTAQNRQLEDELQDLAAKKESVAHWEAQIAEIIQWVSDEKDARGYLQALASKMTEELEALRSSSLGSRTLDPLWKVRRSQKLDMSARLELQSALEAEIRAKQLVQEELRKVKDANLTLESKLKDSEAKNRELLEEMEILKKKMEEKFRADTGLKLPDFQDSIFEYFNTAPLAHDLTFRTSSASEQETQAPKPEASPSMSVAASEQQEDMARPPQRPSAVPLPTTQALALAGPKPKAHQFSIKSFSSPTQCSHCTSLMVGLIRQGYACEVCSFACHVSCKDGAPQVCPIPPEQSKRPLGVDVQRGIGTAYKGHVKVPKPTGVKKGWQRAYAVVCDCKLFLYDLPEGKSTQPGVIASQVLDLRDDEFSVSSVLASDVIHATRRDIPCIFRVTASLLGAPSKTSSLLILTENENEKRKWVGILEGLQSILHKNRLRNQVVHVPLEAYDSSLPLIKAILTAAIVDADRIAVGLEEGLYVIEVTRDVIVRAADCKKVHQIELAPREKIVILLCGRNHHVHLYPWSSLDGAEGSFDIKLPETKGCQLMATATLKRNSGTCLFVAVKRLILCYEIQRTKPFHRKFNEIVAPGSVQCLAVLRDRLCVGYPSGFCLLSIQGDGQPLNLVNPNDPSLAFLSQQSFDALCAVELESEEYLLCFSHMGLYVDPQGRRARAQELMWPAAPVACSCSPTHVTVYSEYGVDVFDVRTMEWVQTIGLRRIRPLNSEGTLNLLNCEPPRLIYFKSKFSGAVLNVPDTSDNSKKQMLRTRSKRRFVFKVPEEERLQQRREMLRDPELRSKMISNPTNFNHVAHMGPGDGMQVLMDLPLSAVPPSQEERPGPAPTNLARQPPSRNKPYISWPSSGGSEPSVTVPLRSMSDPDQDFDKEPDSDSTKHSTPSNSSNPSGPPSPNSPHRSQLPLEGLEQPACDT
Sequence of MAPK13 (p38 delta) (O15264 whole entry): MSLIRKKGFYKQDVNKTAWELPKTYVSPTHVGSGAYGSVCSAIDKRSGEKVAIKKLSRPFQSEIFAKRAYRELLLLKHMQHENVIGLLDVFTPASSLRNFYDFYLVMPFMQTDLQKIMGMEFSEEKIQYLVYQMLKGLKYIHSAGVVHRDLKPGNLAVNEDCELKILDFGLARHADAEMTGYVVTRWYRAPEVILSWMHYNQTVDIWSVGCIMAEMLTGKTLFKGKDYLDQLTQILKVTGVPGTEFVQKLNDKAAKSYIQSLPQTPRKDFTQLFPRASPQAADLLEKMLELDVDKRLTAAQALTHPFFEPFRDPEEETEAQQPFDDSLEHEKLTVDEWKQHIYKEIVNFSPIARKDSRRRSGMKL
Sequence of GRK7 (Q8WTQ7 whole entry): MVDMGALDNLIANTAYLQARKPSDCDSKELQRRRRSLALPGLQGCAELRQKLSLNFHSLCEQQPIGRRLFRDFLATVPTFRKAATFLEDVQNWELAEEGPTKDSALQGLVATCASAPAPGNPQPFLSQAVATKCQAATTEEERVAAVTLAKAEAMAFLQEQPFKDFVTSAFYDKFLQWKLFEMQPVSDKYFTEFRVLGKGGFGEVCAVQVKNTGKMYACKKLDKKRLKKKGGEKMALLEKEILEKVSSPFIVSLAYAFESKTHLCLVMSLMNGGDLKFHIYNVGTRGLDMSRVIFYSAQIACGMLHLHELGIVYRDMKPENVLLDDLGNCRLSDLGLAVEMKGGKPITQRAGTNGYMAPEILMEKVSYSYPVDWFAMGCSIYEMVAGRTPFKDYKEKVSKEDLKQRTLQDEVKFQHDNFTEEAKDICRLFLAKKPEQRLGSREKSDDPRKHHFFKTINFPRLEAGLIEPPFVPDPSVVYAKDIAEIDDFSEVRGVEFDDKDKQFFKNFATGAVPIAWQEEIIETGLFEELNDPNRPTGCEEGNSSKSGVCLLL
Sequence of STK4 (MST1) (Q13043 whole entry): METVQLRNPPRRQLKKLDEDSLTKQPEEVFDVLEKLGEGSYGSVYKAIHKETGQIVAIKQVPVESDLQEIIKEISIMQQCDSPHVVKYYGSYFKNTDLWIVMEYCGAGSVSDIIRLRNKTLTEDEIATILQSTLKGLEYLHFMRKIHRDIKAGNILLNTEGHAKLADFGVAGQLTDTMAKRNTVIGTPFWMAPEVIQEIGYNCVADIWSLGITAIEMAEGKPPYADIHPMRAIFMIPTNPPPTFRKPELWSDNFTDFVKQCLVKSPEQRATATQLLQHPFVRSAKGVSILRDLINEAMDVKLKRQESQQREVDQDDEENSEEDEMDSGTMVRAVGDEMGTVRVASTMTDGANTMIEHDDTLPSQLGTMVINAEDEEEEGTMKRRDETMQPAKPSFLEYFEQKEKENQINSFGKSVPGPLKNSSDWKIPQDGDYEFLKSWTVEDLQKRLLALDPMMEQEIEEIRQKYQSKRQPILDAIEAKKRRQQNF

SMILES: COc1ccc2nc3cc(Cl)ccc3c(Nc3cc(CN4CCCC4)c(O)c(CN4CCCC4)c3)c2n1 [Pyronaridine, 4-[(7-Chloro-2-methoxybenzo[b][1,5]naphthyridin-10-yl)amino]-2,6-bis(1-pyrrolidinylmethyl)phenol phosphate (1:4)]
- inhibition at 1 µM (RPS6KA6 (RSK4)): 4%
- inhibition at 1 µM (CSNK1D (CK1 delta)): 5%
- inhibition at 1 µM (AMPK (A2/B1/G2)): 1%
- inhibition at 1 µM (PTK2 (FAK)): 2%
- inhibition at 1 µM (GRK7): 4%
- inhibition at 1 µM (CHEK1 (CHK1)): 8%
- inhibition at 1 µM (FLT3): 3%
- inhibition at 1 µM (CAMK1G (CAMKI gamma)): 0%
- inhibition at 1 µM (RPS6KA2 (RSK3)): 0%
- inhibition at 1 µM (CSNK1G3 (CK1 gamma 3)): 2%
- inhibition at 1 µM (ABL1 F317L): -1%
- inhibition at 1 µM (RET A883F): -1%
- inhibition at 1 µM (EGFR (ErbB1) T790M L858R): 5%
- inhibition at 1 µM (CDC42 BPB (MRCKB)): -3%
- inhibition at 1 µM (CDK1/cyclin B): 5%
- inhibition at 1 µM (RET Y791F): 5%
- inhibition at 1 µM (PDGFRA (PDGFR alpha)): 2%
- inhibition at 1 µM (MAPK13 (p38 delta)): 5%
- inhibition at 1 µM (CLK1): -1%
- inhibition at 1 µM (PDGFRB (PDGFR beta)): 0%
- inhibition at 1 µM (STK4 (MST1)): -5%
- inhibition at 1 µM (MAP3K19 (YSK4)): 3%
- inhibition at 1 µM (RET V804L): 1%
- inhibition at 1 µM (ACVR1B (ALK4)): -1%
- inhibition at 1 µM (KIT V560G): -5%
- inhibition at 1 µM (PIM1): 8%
- inhibition at 1 µM (MATK (HYL)): -2%
- inhibition at 1 µM (SGK2): 3%
